Experiments:
Type in all cases: in vivo
[1] = system: ivyleaf morningglory (Ipomoea hederacea, IPOHE); assay: Post-emerge test, greenhouse herbicide activity screening; conditions: post-emerge, 14 days after application, rating scale 0-100
How it was run: (§1)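 Compounds in acetone were track-sprayed at 15–1000 g ai/ha: pre-emergence onto soil sown the previous day, then top-watered to incorporate and later bottom-watered; post-emergence onto 2–3 leaf plants with 0.25% v/v surfactant, bottom-watered only. Ratings on a 0–100 phytotoxicity scale were taken at day 14.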

[2] = system: sicklepod (Cassia obtusifolia, CASOB); assay: as above; conditions: post-emerge, 14 days after application, rating scale 0-100
How it was run: as §1

[3] = system: johnsongrass (Sorghum halepense, SORHA); assay: as above; conditions: post-emerge, 14 days after application, rating scale 0-100
How it was run: as §1

[4] = system: barnyardgrass (Echinochloa crus-galli, ECHCG); assay: as above; conditions: post-emerge, 14 days after application, rating scale 0-100
How it was run: as §1

[5] = system: common ragweed (Ambrosia artemisizfolia L., AMBEL); assay: as above; conditions: post-emerge, 14 days after application, rating scale 0-100
How it was run: as §1

[6] = system: lambsquarters (Chenopodium album, CHEAL); assay: as above; conditions: post-emerge, 14 days after application, rating scale 0-100
How it was run: as §1

[7] = system: velvetleaf (Abutilon theophrasti, ABUTH); assay: as above; conditions: post-emerge, 14 days after application, rating scale 0-100
How it was run: as §1

[8] = system: large crabgrass (Digitaria sanguinalis, DIGSA); assay: as above; conditions: post-emerge, 14 days after application, rating scale 0-100
How it was run: as §1

[9] = system: green foxtail (Setaria viridis, SETVI); assay: as above; conditions: post-emerge, 14 days after application, rating scale 0-100
How it was run: as §1

[10] = system: redroot pigweed (Amaranthus retroflexus, AMARE); assay: as above; conditions: post-emerge, 14 days after application
How it was run: as §1

[11] = system: ivyleaf morningglory (Ipomoea hederacea, IPOHE); assay: Pre-emerge test, greenhouse herbicide activity screening; conditions: phytotoxicity rating 0-100, 14 days after application
How it was run: (§2)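 Applied at 15–1000 g ai/ha from acetone in 187 l/ha spray volume. Post-emergence applications included 0.25% v/v non-ionic surfactant and reached plants sown 8–21 days before. Pre-emergence applications were incorporated by surface watering. Efficacy or crop damage was rated on a 0–100 scale after 14 days.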

[12] = system: sicklepod (Cassia obtusifolia, CASOB); assay: as above; conditions: phytotoxicity rating 0-100, 14 days after application
How it was run: as §2

[13] = system: johnsongrass (Sorghum halepense, SORHA); assay: as above; conditions: phytotoxicity rating 0-100, 14 days after application
How it was run: as §2

[14] = system: barnyardgrass (Echinochloa crus-galli, ECHCG); assay: as above; conditions: phytotoxicity rating 0-100, 14 days after application
How it was run: as §2

[15] = system: common ragweed (Ambrosia artemisizfolia L., AMBEL); assay: as above; conditions: phytotoxicity rating 0-100, 14 days after application
How it was run: as §2

[16] = system: lambsquarters (Chenopodium album, CHEAL); assay: as above; conditions: phytotoxicity rating 0-100, 14 days after application
How it was run: as §2

[17] = system: velvetleaf (Abutilon theophrasti, ABUTH); assay: as above; conditions: phytotoxicity rating 0-100, 14 days after application
How it was run: as §2

[18] = system: large crabgrass (Digitaria sanguinalis, DIGSA); assay: as above; conditions: phytotoxicity rating 0-100, 14 days after application
How it was run: as §2

[19] = system: green foxtail (Setaria viridis, SETVI); assay: as above; conditions: phytotoxicity rating 0-100, 14 days after application
How it was run: as §2

[20] = system: redroot pigweed (Amaranthus retroflexus, AMARE); assay: as above; conditions: phytotoxicity rating 0-100, 14 days after application
How it was run: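 Sandy loam pots; pre-emerge: sown 1 d pre-spray, surface-watered after, then bottom-watered. Post-emerge: sown 8–21 d before, 2–3 leaf stage, + 0.25% v/v NIS, bottom-watered. Acetone, 187 l/ha track spray, 15–1000 g ai/ha. 0–100 injury score, day 14.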

[21] = system: field corn (Zea mays L., var. Dekalb 535, CORN); assay: Pre-emerge test, crop safety; conditions: crop damage rating 0-100, 14 days after application
How it was run: (§3)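 Compounds in acetone were track-sprayed at 187 l/ha, 15–1000 g ai/ha, onto sandy loam pots. Pre-emerge seeds were sown one day before spraying, with surface watering afterwards. Post-emerge plants were at the 2–3 leaf stage and sprayed with 0.25% v/v non-ionic surfactant. Injury was rated 0–100 at 14 days.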

[22] = system: upland rice (Oryza sp., var. Tebonnet, RICE); assay: Pre-emerge test, crop safety; conditions: crop damage rating 0-100, 14 days after application
How it was run: as §3

[23] = system: field corn (Zea mays L., var. Dekalb 535, CORN); assay: Post-emerge test, crop safety; conditions: post-emerge, 14 days after application, rating scale 0-100
How it was run: as §2

[24] = system: upland rice (Oryza sp., var. Tebonnet, RICE); assay: Post-emerge test, crop safety; conditions: post-emerge, 14 days after application, rating scale 0-100
How it was run: as §2

Cn1c(C(F)(F)F)cc(=O)n(-c2c(F)cc(Cl)c(O)c2NC(=O)c2ccc3ccccc3c2)c1=O [Compound 2-194, 2-(2,4-chloro-6-fluoro-3-hydroxy-2-naphthoylamidophenyl)-1-methyl-6-trifluoromethyl-2,4(1H, 3H)-pyrimidinedione]
100: phytotoxicity rating CHEAL ([6]; 250 g ai/ha) | phytotoxicity rating ABUTH ([7]; 250 g ai/ha) | Pre-emerge Herbicidal Activity ABUTH ([17]; 250 g ai/ha) | Pre-emerge Herbicidal Activity AMARE ([20]; 250 g ai/ha)
10: phytotoxicity rating SORHA ([3]; 250 g ai/ha) | phytotoxicity rating ECHCG ([4]; 250 g ai/ha) | Pre-emerge Herbicidal Activity CASOB ([12]; 250 g ai/ha) | Pre-emerge Herbicidal Activity DIGSA ([18]; 250 g ai/ha) | Pre-emerge Herbicidal Activity RICE ([22]; 250 g ai/ha)
5: phytotoxicity rating CORN (crop damage) ([23]; 63 g ai/ha) | phytotoxicity rating CORN (crop damage) ([23]; 250 g ai/ha)
85: Pre-emerge Herbicidal Activity CHEAL ([16]; 250 g ai/ha)
20: phytotoxicity rating DIGSA ([8]; 250 g ai/ha) | phytotoxicity rating SETVI ([9]; 63 g ai/ha) | phytotoxicity rating SETVI ([9]; 250 g ai/ha) | Pre-emerge Herbicidal Activity IPOHE ([11]; 250 g ai/ha) | Pre-emerge Herbicidal Activity SETVI ([19]; 250 g ai/ha)
90: phytotoxicity rating AMBEL ([5]; 250 g ai/ha) | phytotoxicity rating CHEAL ([6]; 63 g ai/ha) | Pre-emerge Herbicidal Activity ABUTH ([17]; 63 g ai/ha)
40: Pre-emerge Herbicidal Activity CHEAL ([16]; 63 g ai/ha) | phytotoxicity rating RICE (crop damage) ([24]; 250 g ai/ha)
30: phytotoxicity rating RICE (crop damage) ([24]; 63 g ai/ha)
95: phytotoxicity rating IPOHE ([1]; 63 g ai/ha) | phytotoxicity rating AMBEL ([5]; 63 g ai/ha) | phytotoxicity rating ABUTH ([7]; 63 g ai/ha)
70: phytotoxicity rating CASOB ([2]; 250 g ai/ha)
0: phytotoxicity rating SORHA ([3]; 63 g ai/ha) | phytotoxicity rating ECHCG ([4]; 63 g ai/ha) | phytotoxicity rating DIGSA ([8]; 63 g ai/ha) | Pre-emerge Herbicidal Activity IPOHE ([11]; 63 g ai/ha) | Pre-emerge Herbicidal Activity CASOB ([12]; 63 g ai/ha) | Pre-emerge Herbicidal Activity SORHA ([13]; 63 g ai/ha) | Pre-emerge Herbicidal Activity SORHA ([13]; 250 g ai/ha) | Pre-emerge Herbicidal Activity ECHCG ([14]; 63 g ai/ha) | Pre-emerge Herbicidal Activity ECHCG ([14]; 250 g ai/ha) | Pre-emerge Herbicidal Activity AMBEL ([15]; 63 g ai/ha) | Pre-emerge Herbicidal Activity AMBEL ([15]; 250 g ai/ha) | Pre-emerge Herbicidal Activity DIGSA ([18]; 63 g ai/ha) | Pre-emerge Herbicidal Activity SETVI ([19]; 63 g ai/ha) | Pre-emerge Herbicidal Activity CORN ([21]; 63 g ai/ha) | Pre-emerge Herbicidal Activity CORN ([21]; 250 g ai/ha) | Pre-emerge Herbicidal Activity RICE ([22]; 63 g ai/ha)
99: phytotoxicity rating IPOHE ([1]; 250 g ai/ha) | phytotoxicity rating AMARE ([10]; 63 g ai/ha, rating scale 0-100 (0 no damage, 100 complete death)) | phytotoxicity rating AMARE ([10]; 250 g ai/ha, rating scale 0-100)
75: Pre-emerge Herbicidal Activity AMARE ([20]; 63 g ai/ha)
50: phytotoxicity rating CASOB ([2]; 63 g ai/ha)
